Patent US20100004333A1, “COMPOSITIONS AND METHODS FOR TREATING CARDIOVASCULAR DISORDERS” (priority 2004, published 2010)

Experiments:
[1] = tested on: apoE−/− mice; test: Atherosclerotic lesion size (morphometry) in apoE−/− mice on high fat diet with or without probucol; format: in vivo; conditions: 24 weeks
Description: Male C57BL/6J mice, homozygous for the disrupted apoE gene (apoE−/−) and originally purchased from Jackson Laboratories (Bar Harbor, Me.), were used at 8-10 weeks of age and then fed for 24 weeks ad libitum a high fat diet containing 21.2 (w/w) fat and 0.15% (w/w) cholesterol (specifications of the Harlan Teklad diet TD88137), without (controls, 103 mice) or with probucol (1% w/w, 87 mice), as described in Arteriosclerosis Thrombosis and Vascular Biology 2000, 20:e26-e33. The local animal ethics committee approved the study.
Procedures were carried out as described in Arteriosclerosis Thrombosis and Vascular Biology 2000, 20:e26-e33. For biochemistry, hearts and aortas past the femoral bifurcation were excised carefully (n=86 and 70 for control and probucol animals, respectively), cleaned, placed immediately in ice-cold buffer containing protease inhibitors and antibiotics, and then stored at −80° C. For histology, separate mice (n=17 each, for controls and probucol) were perfusion fixed, the hearts and aortas dissected and processed for blinded morphometry at the sinus, arch and descending thoracic and abdominal aorta, precisely as described in Arteriosclerosis Thrombosis and Vascular Biology 2000, 20:e26-e33. Mean areas from thoracic and abdominal aortas were similar and therefore combined and presented as a single value. For histology, sections at the sinus were taken ˜200 μm from the first appearance of the leaflets. Sections at the thoracic and abdominal aorta were taken at the branch point of the 3rd pair of intra-costal arteries and the celiac artery, respectively.
Data on lesion size are presented as mean±SEM and the effects of probucol analysed by the Mann-Whitney U-test. Biochemical parameters were compared using a one-way ANOVA or Mann-Whitney U-test. Data on total cell numbers, macrophages and collagen content are expressed as mean±SD, and significant differences between means evaluated using the Student's t-test. Statistical significance was accepted at p<0.05.

[2] = versus 10.8 for octanol; cited from earlier work

Q: What does the source list for `CC(C)(Sc1cc(C(C)(C)C)c(O)c(C(C)(C)C)c1)Sc1cc(C(C)(C)C)c(O)c(C(C)(C)C)c1` [probucol]?
A: Lesion size ([1]; Arch, 1% probucol, mean ± SEM, 17 mice): 121 ± 27^a μm^2 × 10^−3; Lesion size ([1]; Sinus, 1% (w/w) probucol in high fat diet, mean ± SEM, 17 mice): 904 ± 56 μm^2 × 10^−3; Lesion size ([1]; Thoracic/Abdominal, 1% probucol, mean ± SEM, 17 mice): 7 ± 2^a μm^2 × 10^−3; Lesion size ([1]; arch, 1% probucol): 0.12±0.03 mm^2; Inhibition of disease (lesion size) versus control ([1]; arch, 1% probucol, not significant): 36%; Lesion size ([1]; descending aorta, 1% probucol): 7,300±2,400 μm^2; Inhibition of disease (lesion size) versus control ([1]; descending aorta, 1% probucol, p<0.0001): 94%; Lesion size ([1]; sinus, 1% probucol): 0.90±0.56 mm^2; Increase in lesion size versus control ([1]; sinus, 1% probucol, p<0.01): 33%; Partition coefficient between octanol and water [2]: 10
